Assay results taken from PubChem BioAssay (NCI).
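Five compound concentrations were applied to cells in 96-well plates for 48 hours; endpoints were derived by simple linear interpolation of the resulting dose-response curve. At the GI50, growth is halved. TGI marks complete inhibition of growth.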

Key:
Test in all cases: growth of human tumour cells (NCI), 48 h
BT-549 breast = system: BT-549 breast
SF-539 CNS = system: SF-539 CNS
HCT-116 colon = system: HCT-116 colon
MCF7 breast = system: MCF7 breast
MALME-3M melanoma = system: MALME-3M melanoma
RPMI-8226 leukemia = system: RPMI-8226 leukemia
HOP-62 NSCLC = system: HOP-62 NSCLC
HOP-92 NSCLC = system: HOP-92 NSCLC
K-562 leukemia = system: K-562 leukemia
CCRF-CEM leukemia = system: CCRF-CEM leukemia
U251 CNS = system: U251 CNS
PC-3 prostate = system: PC-3 prostate
UACC-62 melanoma = system: UACC-62 melanoma
NCI-H226 lung = system: NCI-H226 lung
IGROV1 ovarian = system: IGROV1 ovarian
HCT-15 colon = system: HCT-15 colon
LOX IMVI melanoma = system: LOX IMVI melanoma
HT29 colon = system: HT29 colon
SW-620 colon = system: SW-620 colon
TK-10 renal = system: TK-10 renal
SK-MEL-28 melanoma = system: SK-MEL-28 melanoma
MOLT-4 leukemia = system: MOLT-4 leukemia
MDA-N = system: MDA-N
OVCAR-4 ovarian = system: OVCAR-4 ovarian
SF-268 CNS = system: SF-268 CNS
MDA-MB-231 breast = system: MDA-MB-231 breast
HS 578T breast = system: HS 578T breast
A549 NSCLC = system: A549 NSCLC
DU-145 prostate = system: DU-145 prostate
SK-OV-3 ovarian = system: SK-OV-3 ovarian
RXF 393 renal = system: RXF 393 renal
SN12C renal = system: SN12C renal
OVCAR-8 ovarian = system: OVCAR-8 ovarian
UO-31 renal = system: UO-31 renal
EKVX NSCLC = system: EKVX NSCLC
SNB-75 CNS = system: SNB-75 CNS
A498 renal = system: A498 renal
UACC-257 melanoma = system: UACC-257 melanoma
COLO 205 colon = system: COLO 205 colon
NCI-H522 lung = system: NCI-H522 lung
SF-295 CNS = system: SF-295 CNS
NCI/ADR-RES ovarian = system: NCI/ADR-RES ovarian
SK-MEL-5 melanoma = system: SK-MEL-5 melanoma
ACHN renal = system: ACHN renal
OVCAR-3 ovarian = system: OVCAR-3 ovarian
SR leukemia = system: SR leukemia
HCC-2998 colon = system: HCC-2998 colon
OVCAR-5 ovarian = system: OVCAR-5 ovarian
MDA-MB-435 = system: MDA-MB-435
786-0 renal = system: 786-0 renal
CAKI-1 renal = system: CAKI-1 renal
KM12 colon = system: KM12 colon
NCI-H460 lung = system: NCI-H460 lung
T-47D breast = system: T-47D breast
M14 melanoma = system: M14 melanoma
SK-MEL-2 melanoma = system: SK-MEL-2 melanoma
NCI-H23 lung = system: NCI-H23 lung
SNB-19 CNS = system: SNB-19 CNS

CC#Cc1cc2c(cc1O)CC[C@@H]1[C@@H]2CC[C@]2(C)[C@@H](O)CC[C@@H]12
TGI (BT-549 breast): 24.5 µM | GI50 (SF-539 CNS): 0.939 µM | TGI (SF-539 CNS): 6.04 µM | GI50 (HCT-116 colon): 0.48 µM | TGI (HCT-116 colon): 17.3 µM | TGI (MCF7 breast): 64.3 µM | TGI (MALME-3M melanoma): 18.3 µM | TGI (RPMI-8226 leukemia): > 66.1 µM | TGI (HOP-62 NSCLC): 16 µM | TGI (HOP-92 NSCLC): 26.9 µM | TGI (K-562 leukemia): > 100 µM | TGI (CCRF-CEM leukemia): > 100 µM | TGI (U251 CNS): 7.81 µM | TGI (PC-3 prostate): 39 µM | GI50 (UACC-62 melanoma): 0.503 µM | TGI (UACC-62 melanoma): 16.7 µM | TGI (NCI-H226 lung): 17.8 µM | TGI (IGROV1 ovarian): 38.1 µM | TGI (HCT-15 colon): 14.2 µM | TGI (LOX IMVI melanoma): 19.5 µM | TGI (HT29 colon): 30.5 µM | TGI (SW-620 colon): 11.1 µM | TGI (TK-10 renal): > 91.3 µM | TGI (SK-MEL-28 melanoma): 23.7 µM | TGI (MOLT-4 leukemia): 17.2 µM | TGI (MDA-N): 0.547 µM | TGI (OVCAR-4 ovarian): 62 µM | TGI (SF-268 CNS): > 100 µM | TGI (MDA-MB-231 breast): 46.2 µM | TGI (HS 578T breast): 29.5 µM | TGI (A549 NSCLC): > 37.8 µM | TGI (DU-145 prostate): 46.9 µM | TGI (SK-OV-3 ovarian): > 62.2 µM | TGI (RXF 393 renal): 13.8 µM | TGI (SN12C renal): 22.8 µM | TGI (OVCAR-8 ovarian): 19.9 µM | TGI (UO-31 renal): 39 µM | TGI (EKVX NSCLC): 26 µM | TGI (SNB-75 CNS): 27.6 µM | TGI (A498 renal): 27.9 µM | TGI (UACC-257 melanoma): 28.1 µM | TGI (COLO 205 colon): 33.4 µM | TGI (NCI-H522 lung): 2.71 µM | TGI (SF-295 CNS): 2.73 µM | TGI (NCI/ADR-RES ovarian): 10.3 µM | TGI (SK-MEL-5 melanoma): 13.8 µM | TGI (ACHN renal): > 69.6 µM | GI50 (OVCAR-3 ovarian): 0.337 µM | TGI (OVCAR-3 ovarian): 3.26 µM | TGI (SR leukemia): 25.7 µM | TGI (HCC-2998 colon): 19.2 µM | TGI (OVCAR-5 ovarian): 48.4 µM | TGI (MDA-MB-435): 0.814 µM | TGI (786-0 renal): 35.1 µM | TGI (CAKI-1 renal): > 69.6 µM | TGI (KM12 colon): 14.1 µM | TGI (NCI-H460 lung): 20.2 µM | TGI (T-47D breast): > 89.6 µM | TGI (M14 melanoma): 17.7 µM | TGI (SK-MEL-2 melanoma): 15.1 µM | TGI (NCI-H23 lung): 10.6 µM | TGI (SNB-19 CNS): 29.1 µM
